Assay results from ChEMBL document CHEMBL6153097, “Design, synthesis, and biological evaluation of Flavokavain B derivatives as potent TRF2 inhibitors for the treatment of Osteosarcoma” (Eur J Med Chem, 2025).
Calls of active or inactive are those of the source. The rule behind the calls is not given here.

How the values were obtained:
MG-63 [1] = experiment: Induction of apoptosis in human MG-63 cells assessed as late apoptotic cells at 4 uM measured after 48 hrs annexin-V and propidium iodide staining based flow cytometry analysis (reference value: 7.71%); type: functional
[2] = Cytotoxicity against […] MLO-Y4 cells assessed as cell viability incubated for 48 hrs by MTT assay; type: toxicity, cell-based; settings: mouse
MG-63 [3] = experiment: Antiproliferative activity against human MG-63 cells assessed as reduction in cell viability at 2 to 4 uM measured for 8 days by PDL assay; type: functional, cell-based; settings: dose 2-4 µM, time 8.0 day
[4] = Inhibition of TRF2 expression in human MG-63 cells at 2 uM measured after 48 hrs by Western blot analysis relative to control; type: functional
[5] = biological target: T1, Telomeric repeat-binding factor 2 (Homo sapiens) (UniProt Q15554); experiment: Induction of thermal stabilization of TRF2 TRFH domain in human MG-63 cells at 46 to 55 degC incubated for 4 hrs by cellular thermal shift assay (CESTA) based Western blot analysis; type: cell-based
T1 sequence (whole entry): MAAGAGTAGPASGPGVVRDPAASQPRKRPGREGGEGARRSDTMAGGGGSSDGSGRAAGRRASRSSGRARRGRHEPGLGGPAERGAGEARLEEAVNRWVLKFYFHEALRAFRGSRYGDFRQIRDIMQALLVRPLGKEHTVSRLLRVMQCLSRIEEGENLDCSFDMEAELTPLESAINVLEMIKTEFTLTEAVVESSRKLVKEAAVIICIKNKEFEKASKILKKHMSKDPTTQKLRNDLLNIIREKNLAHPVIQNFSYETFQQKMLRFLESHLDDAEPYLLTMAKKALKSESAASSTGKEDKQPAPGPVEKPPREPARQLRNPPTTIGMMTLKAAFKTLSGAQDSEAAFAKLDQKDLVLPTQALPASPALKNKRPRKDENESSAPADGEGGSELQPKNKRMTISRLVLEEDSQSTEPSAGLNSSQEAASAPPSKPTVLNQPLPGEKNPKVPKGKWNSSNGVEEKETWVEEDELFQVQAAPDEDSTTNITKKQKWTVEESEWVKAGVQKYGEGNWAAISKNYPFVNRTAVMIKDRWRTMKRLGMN

MG-63 [6] = experiment: Induction of DNA damage in human MG-63 cells assessed as increase in 53BP1 foci by Immunofluorescence based FISH assay; type: functional, cell-based; settings: dose 2-4 µM
U2OS [7] = experiment: Induction of apoptosis in human U2OS cells assessed as early apoptotic cells at 2 uM measured after 48 hrs annexin-V and propidium iodide staining based flow cytometry analysis (reference value: 2.38%); type: functional
MG-63 [8] = experiment: Antitumor activity against human MG-63 cells xenografted in female BALB/c mouse model assessed as nucleocytoplasmic separation in tumor tissue treated via oral gavage administered once a day for 3 weeks by HE staining analysis; type: functional, cell-based; settings: dose 10-60 mg/kg
[9] = Toxicity in female BALB/c mouse model xenografted with human MG-63 cells assessed as drug tolerance at 10 to 60 mg/kg, via oral gavage administered once a day for 3 weeks; type: organism-based; settings: in vivo, 504 h, dose 10-60 mg/kg
U2OS [10] = experiment: Induction of apoptosis in human U2OS cells assessed as late apoptotic cells at 2 uM measured after 48 hrs annexin-V and propidium iodide staining based flow cytometry analysis (reference value: 5.94%); type: functional
U2OS [11] = experiment: Inhibition of TRF2 expression in human U2OS cells by co-immunoprecipitation based Western blot analysis; type: functional, cell-based
MG-63 [12] = experiment: Downregulation of TRF expression levels in human MG-63 cells measured after 48 hrs by Western blot analysis; type: functional, cell-based; settings: dose 2-4 µM
MG-63 [13] = experiment: Antitumor activity against human MG-63 cells xenografted in female BALB/c mouse model assessed as tumour growth suppression at 10 to 60 mg/kg, via oral gavage administered once a day for 3 weeks; type: functional, organism-based; settings: dose 10-60 mg/kg
[14] = Inhibition of TRF2 expression in human U2OS cells at 2 uM measured after 48 hrs by Western blot analysis relative to control; type: functional
MG-63 [15] = experiment: Antitumor activity against human MG-63 cells xenografted in female BALB/c mouse model assessed as downregulation of TRF2 in tumor treated via oral gavage administered once a day for 3 weeks by IHC analysis; type: functional, cell-based; settings: dose 10-60 mg/kg
[16] = Acute toxicity in mouse assessed as change in weight of lung at 30 to 90 mg/kg, po single dose measured for 7 days; type: organism-based; settings: in vivo, 168 h, dose 30-90 mg/kg, time 7 day
MG-63 [17] = experiment: Induction of apoptosis in human MG-63 cells assessed as necrotic cells at 2 uM measured after 48 hrs annexin-V and propidium iodide staining based flow cytometry analysis (reference value: 0.52%); type: functional
U2OS [18] = experiment: Induction of apoptosis in human U2OS cells assessed as reduction in TRF2 foci at 2 to 4 microM by Immunofluorescence based FISH assay; type: functional, cell-based; settings: dose 2-4 µM
U2OS [19] = experiment: Induction of apoptosis in human U2OS cells assessed as viable cells at 4 uM measured after 48 hrs annexin-V and propidium iodide staining based flow cytometry analysis (reference value: 89.2%); type: functional; settings: read-out: Activity
U2OS [20] = experiment: Induction of apoptosis in human U2OS cells assessed as late apoptotic cells at 4 uM measured after 48 hrs annexin-V and propidium iodide staining based flow cytometry analysis (reference value: 5.94%); type: functional
MG-63 [21] = experiment: Antiproliferative activity against human MG-63 cells assessed as reduction in cell viability incubated for 48 hrs by MTT assay; type: functional, cell-based; settings: MG-63, 48 h
[22] = Toxicity in female BALB/c mouse model xenografted with human MG-63 cells assessed as effect on body weight at 10 to 60 mg/kg, via oral gavage administered once a day for 3 weeks; type: organism-based; settings: in vivo, 504 h, dose 10-60 mg/kg
U2OS [23] = experiment: Induction of apoptosis in human U2OS cells assessed as viable cells at 2 uM measured after 48 hrs annexin-V and propidium iodide staining based flow cytometry analysis (reference value: 89.2%); type: functional; settings: read-out: Activity
[24] = Acute toxicity in mouse assessed as change in weight of spleen at 30 to 90 mg/kg, po single dose measured for 7 days; type: organism-based; settings: in vivo, 168 h, dose 30-90 mg/kg, time 7 day
MG-63 [25] = experiment: Induction of apoptosis in human MG-63 cells assessed as reduction in colocalization of TRF2 with telomere at 2 to 4 microM by Immunofluorescence based FISH assay; type: functional, cell-based; settings: dose 2-4 µM
U2OS [26] = experiment: Induction of DNA damage in human U2OS cells assessed as upregulation of gamma-H2AX level by Immunofluorescence based FISH assay; type: functional, cell-based; settings: dose 2-4 µM
U2OS [27] = experiment: Induction of apoptosis in human U2OS cells assessed as necrotic apoptotic cells at 2 uM measured after 48 hrs annexin-V and propidium iodide staining based flow cytometry analysis (reference value: 2.46%); type: functional
MG-63 [28] = experiment: Induction of DNA damage in human MG-63 cells assessed as increase in telomere dysfunction-foci at 4 uM by Immunofluorescence based FISH assay; type: functional, cell-based
U2OS [29] = experiment: Induction of apoptosis in human U2OS cells assessed as necrotic cells at 4 uM measured after 48 hrs annexin-V and propidium iodide staining based flow cytometry analysis (reference value: 2.46%); type: functional
[30] = Acute toxicity in mouse assessed as creatinine (Cr) level in serum at 30 to 90 mg/kg, po single dose measured for 7 days; type: organism-based; settings: in vivo, 168 h, dose 30-90 mg/kg, time 7 day
MG-63 [31] = experiment: Induction of DNA damage response in human MG-63 cells assessed as reduction in TRF2 expression by measuring accumulation of telomere-free ends at 2 to 4 uM by FITC/DAPI based Quantitative FISH (Q-FISH) assay; type: functional, cell-based; settings: dose 2-4 µM

Question: Which Activity (MG-63 [1]) does the source give for `COc1cc(OC)c(C(=O)/C=C/c2cccc(Br)c2)c(OC)c1` here?
Answer: 61.9%

Question: And the IC50 at 48 h [2]?
Answer: 12.3 µM

Question: What about the Activity (MG-63 [3]) of the same compound?
Answer: Active

Question: What about the inhibition at 2 µM [4] of the same compound?
Answer: 54%

Question: And the Activity [5]?
Answer: Active

Question: What about the Activity (MG-63 [6]) of the same compound?
Answer: Dose-dependent-effect

Question: And the Activity (U2OS [7])?
Answer: 12.9%

Question: And the Activity (MG-63 [8])?
Answer: Dose-dependent-effect; Significant Than Control

Question: What about the Activity [9] of the same compound?
Answer: Non-toxic

Question: And the Activity (U2OS [10])?
Answer: 18.3%

Question: What about the inhibition (U2OS [11]) of the same compound?
Answer: Active

Question: What about the Activity (MG-63 [12]) of the same compound?
Answer: Dose-dependent-effect

Question: And the Activity (MG-63 [13])?
Answer: Active; Stronger Than Control Drugs

Question: What about the inhibition at 2 µM [14] of the same compound?
Answer: 55.1%

Question: What about the Activity (MG-63 [15]) of the same compound?
Answer: Dose-dependent-effect

Question: And the Activity [16]?
Answer: Non-toxic

Question: What about the Activity (MG-63 [17]) of the same compound?
Answer: 2.69%

Question: What about the Activity (U2OS [18]) of the same compound?
Answer: Active

Question: And the viability at 4 µM (U2OS [19])?
Answer: 52.2%

Question: And the Activity (U2OS [20])?
Answer: 16.3%

Question: And the IC50 (MG-63 [21])?
Answer: 1520 nM

Question: And the Activity [22]?
Answer: Non-toxic

Question: What about the viability at 2 µM (U2OS [23]) of the same compound?
Answer: 67.7%

Question: And the Activity [24]?
Answer: Non-toxic

Question: What about the Activity (MG-63 [25]) of the same compound?
Answer: Active

Question: What about the Activity (U2OS [26]) of the same compound?
Answer: Dose-dependent-effect

Question: And the Activity (U2OS [27])?
Answer: 1.18%

Question: And the Activity (MG-63 [28])?
Answer: Active

Question: And the Activity (U2OS [29])?
Answer: 0.523%

Question: And the Activity [30]?
Answer: Non-toxic

Question: And the Activity (MG-63 [31])?
Answer: Active
